From PubChem BioAssay (NCI)
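48-hour exposure; five concentrations; linearly interpolated endpoints. The concentration for 50% growth inhibition is given as GI50. At the TGI there is no net growth.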

Columns and labels:
Experiment in all cases: inhibition of tumour cell growth, NCI panel, 48 h
786-0 renal = system: 786-0 renal
A498 renal = system: A498 renal
A549 NSCLC = system: A549 NSCLC
ACHN renal = system: ACHN renal
BT-549 breast = system: BT-549 breast
CAKI-1 renal = system: CAKI-1 renal
CCRF-CEM leukemia = system: CCRF-CEM leukemia
COLO 205 colon = system: COLO 205 colon
DU-145 prostate = system: DU-145 prostate
EKVX NSCLC = system: EKVX NSCLC
HCC-2998 colon = system: HCC-2998 colon
HCT-116 colon = system: HCT-116 colon
HCT-15 colon = system: HCT-15 colon
HL-60(TB) leukemia = system: HL-60(TB) leukemia
HOP-62 NSCLC = system: HOP-62 NSCLC
HOP-92 NSCLC = system: HOP-92 NSCLC
HS 578T breast = system: HS 578T breast
HT29 colon = system: HT29 colon
IGROV1 ovarian = system: IGROV1 ovarian
K-562 leukemia = system: K-562 leukemia
KM12 colon = system: KM12 colon
LOX IMVI melanoma = system: LOX IMVI melanoma
M14 melanoma = system: M14 melanoma
MALME-3M melanoma = system: MALME-3M melanoma
MCF7 breast = system: MCF7 breast
MDA-MB-231 breast = system: MDA-MB-231 breast
MDA-MB-435 = system: MDA-MB-435
MDA-MB-468 breast = system: MDA-MB-468 breast
MOLT-4 leukemia = system: MOLT-4 leukemia
NCI-H226 lung = system: NCI-H226 lung
NCI-H23 lung = system: NCI-H23 lung
NCI-H460 lung = system: NCI-H460 lung
NCI-H522 lung = system: NCI-H522 lung
NCI/ADR-RES ovarian = system: NCI/ADR-RES ovarian
OVCAR-3 ovarian = system: OVCAR-3 ovarian
OVCAR-4 ovarian = system: OVCAR-4 ovarian
OVCAR-5 ovarian = system: OVCAR-5 ovarian
OVCAR-8 ovarian = system: OVCAR-8 ovarian
PC-3 prostate = system: PC-3 prostate
RPMI-8226 leukemia = system: RPMI-8226 leukemia
RXF 393 renal = system: RXF 393 renal
SF-268 CNS = system: SF-268 CNS
SF-295 CNS = system: SF-295 CNS
SF-539 CNS = system: SF-539 CNS
SK-MEL-2 melanoma = system: SK-MEL-2 melanoma
SK-MEL-28 melanoma = system: SK-MEL-28 melanoma
SK-MEL-5 melanoma = system: SK-MEL-5 melanoma
SK-OV-3 ovarian = system: SK-OV-3 ovarian
SN12C renal = system: SN12C renal
SNB-19 CNS = system: SNB-19 CNS
SNB-75 CNS = system: SNB-75 CNS
SR leukemia = system: SR leukemia
SW-620 colon = system: SW-620 colon
T-47D breast = system: T-47D breast
TK-10 renal = system: TK-10 renal
U251 CNS = system: U251 CNS
UACC-257 melanoma = system: UACC-257 melanoma
UACC-62 melanoma = system: UACC-62 melanoma
UO-31 renal = system: UO-31 renal

Q: What does the source list for `CC[C@@]12CC(C(=O)OC)=C3Nc4cc5c(cc4[C@@]34CCN(C[C@H]3O[C@H]31)[C@@H]24)[C@@H]1[C@H](O5)[C@@H](O)[C@@]2(CC)CC(C(=O)OC)=C3Nc4cc(O)ccc4[C@@]34CCN1[C@@H]24`?
A: GI50 (786-0 renal): 188 nM; TGI (786-0 renal): 10000 nM; GI50 (A498 renal): 269 nM; TGI (A498 renal): 2560 nM; GI50 (A549 NSCLC): 381 nM; TGI (A549 NSCLC): 11100 nM; GI50 (ACHN renal): 363 nM; TGI (ACHN renal): 12800 nM; GI50 (BT-549 breast): 370 nM; TGI (BT-549 breast): 4050 nM; GI50 (CAKI-1 renal): 61.9 nM; TGI (CAKI-1 renal): 6290 nM; GI50 (CCRF-CEM leukemia): 4380 nM; TGI (CCRF-CEM leukemia): 56000 nM; GI50 (COLO 205 colon): 158 nM; TGI (COLO 205 colon): 2280 nM; GI50 (DU-145 prostate): 1720 nM; TGI (DU-145 prostate): 11500 nM; GI50 (EKVX NSCLC): 439 nM; TGI (EKVX NSCLC): 16700 nM; GI50 (HCC-2998 colon): 145 nM; TGI (HCC-2998 colon): 735 nM; GI50 (HCT-116 colon): 199 nM; TGI (HCT-116 colon): 1760 nM; GI50 (HCT-15 colon): 173 nM; TGI (HCT-15 colon): 1800 nM; GI50 (HL-60(TB) leukemia): 35.1 nM; TGI (HL-60(TB) leukemia): 295 nM; GI50 (HOP-62 NSCLC): 156 nM; TGI (HOP-62 NSCLC): 7580 nM; GI50 (HOP-92 NSCLC): 127 nM; TGI (HOP-92 NSCLC): 11000 nM; GI50 (HS 578T breast): 105 nM; TGI (HS 578T breast): 2860 nM; GI50 (HT29 colon): 142 nM; TGI (HT29 colon): 7450 nM; GI50 (IGROV1 ovarian): 254 nM; TGI (IGROV1 ovarian): 2930 nM; GI50 (K-562 leukemia): 134 nM; TGI (K-562 leukemia): 7900 nM; GI50 (KM12 colon): 273 nM; TGI (KM12 colon): 4520 nM; GI50 (LOX IMVI melanoma): 111 nM; TGI (LOX IMVI melanoma): 542 nM; GI50 (M14 melanoma): 239 nM; TGI (M14 melanoma): 19200 nM; GI50 (MALME-3M melanoma): 201 nM; TGI (MALME-3M melanoma): 2640 nM; GI50 (MCF7 breast): 45.2 nM; TGI (MCF7 breast): 6010 nM; GI50 (MDA-MB-231 breast): 117 nM; TGI (MDA-MB-231 breast): 1900 nM; GI50 (MDA-MB-435): 191 nM; TGI (MDA-MB-435): 8940 nM; GI50 (MDA-MB-468 breast): 55.3 nM; TGI (MDA-MB-468 breast): 320 nM; GI50 (MOLT-4 leukemia): 768 nM; TGI (MOLT-4 leukemia): 5320 nM; GI50 (NCI-H226 lung): 157 nM; TGI (NCI-H226 lung): 7000 nM; GI50 (NCI-H23 lung): 278 nM; TGI (NCI-H23 lung): 2370 nM; GI50 (NCI-H460 lung): 441 nM; TGI (NCI-H460 lung): 7570 nM; GI50 (NCI-H522 lung): 51.5 nM; TGI (NCI-H522 lung): 752 nM; GI50 (NCI/ADR-RES ovarian): 1110 nM; TGI (NCI/ADR-RES ovarian): 3850 nM; GI50 (OVCAR-3 ovarian): 221 nM; TGI (OVCAR-3 ovarian): 3580 nM; GI50 (OVCAR-4 ovarian): 232 nM; TGI (OVCAR-4 ovarian): 14700 nM; GI50 (OVCAR-5 ovarian): 1330 nM; TGI (OVCAR-5 ovarian): 15000 nM; GI50 (OVCAR-8 ovarian): 424 nM; TGI (OVCAR-8 ovarian): 15700 nM; GI50 (PC-3 prostate): 380 nM; TGI (PC-3 prostate): 18800 nM; GI50 (RPMI-8226 leukemia): 109 nM; TGI (RPMI-8226 leukemia): 13700 nM; GI50 (RXF 393 renal): 763 nM; TGI (RXF 393 renal): 3890 nM; GI50 (SF-268 CNS): 1300 nM; TGI (SF-268 CNS): 13400 nM; GI50 (SF-295 CNS): 330 nM; TGI (SF-295 CNS): 12700 nM; GI50 (SF-539 CNS): 322 nM; TGI (SF-539 CNS): 11600 nM; GI50 (SK-MEL-2 melanoma): 876 nM; TGI (SK-MEL-2 melanoma): 5270 nM; GI50 (SK-MEL-28 melanoma): 622 nM; TGI (SK-MEL-28 melanoma): 15800 nM; GI50 (SK-MEL-5 melanoma): 154 nM; TGI (SK-MEL-5 melanoma): 958 nM; GI50 (SK-OV-3 ovarian): 149 nM; TGI (SK-OV-3 ovarian): 6220 nM; GI50 (SN12C renal): 439 nM; TGI (SN12C renal): 10900 nM; GI50 (SNB-19 CNS): 277 nM; TGI (SNB-19 CNS): 9060 nM; GI50 (SNB-75 CNS): 21.8 nM; TGI (SNB-75 CNS): 1190 nM; GI50 (SR leukemia): 79.3 nM; TGI (SR leukemia): 7690 nM; GI50 (SW-620 colon): 530 nM; TGI (SW-620 colon): 5250 nM; GI50 (T-47D breast): 143 nM; TGI (T-47D breast): 10400 nM; GI50 (TK-10 renal): 128 nM; TGI (TK-10 renal): 3310 nM; GI50 (U251 CNS): 317 nM; TGI (U251 CNS): 4770 nM; GI50 (UACC-257 melanoma): 199 nM; TGI (UACC-257 melanoma): 6890 nM; GI50 (UACC-62 melanoma): 49.1 nM; TGI (UACC-62 melanoma): 1170 nM; GI50 (UO-31 renal): 132 nM; TGI (UO-31 renal): 6080 nM
